# Biological target: Stimulator of interferon genes protein (Homo sapiens, UniProt Q86WV6)
# Test: Human STING WT Binding Assay
# Description: Cisbio Bioassays' human STING WT binding assay (#64BDSTGPEG & 64BDSTGPEH, Cisbio) is for quantitative measurement of human STING WT ligand using HTRF technology.1. Adding CompoundsNegative control: Dispense 5 μL of diluent into each negative control well. Standard: Dispense 5 μL of each Human STING WT Standard 2′3′-cGAMP (Std 0-Std 7) into each standard well. Compound: Dispense 5 μL of compound into each compound well.2. Adding ProteinsNegative control: Add 5 μL of detection buffer to all wells. Other wells: Add 5 μL of human STING WT protein 6His-tagged protein to all wells.3. Adding AntibodiesAdd 10 μL of premixed STING WT ligand d2 reagent and 6His Tb antibody working solution to all wells.4. RT IncubationSeal the plate and incubate 3 hours at RT or at Over Night if necessary.5. Reading PlateRemove the plate sealer and read on an HTRF compatible reader (PerkinElmer, USA). Results were analyzed with a two-wavelength signal ratio: intensity (665 nm)/intensity (620 nm).6.
# Stimulator of interferon genes protein, sequence (Q86WV6 whole entry): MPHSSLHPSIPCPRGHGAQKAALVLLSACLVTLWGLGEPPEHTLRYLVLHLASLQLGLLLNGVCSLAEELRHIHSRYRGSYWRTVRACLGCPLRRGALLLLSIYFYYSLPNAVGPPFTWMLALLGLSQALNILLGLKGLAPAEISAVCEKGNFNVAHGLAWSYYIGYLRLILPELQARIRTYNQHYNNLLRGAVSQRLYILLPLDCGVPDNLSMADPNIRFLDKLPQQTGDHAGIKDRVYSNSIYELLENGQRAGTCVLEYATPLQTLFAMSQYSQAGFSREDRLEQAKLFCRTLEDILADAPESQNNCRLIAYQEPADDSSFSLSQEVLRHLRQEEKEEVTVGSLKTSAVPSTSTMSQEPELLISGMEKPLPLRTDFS
structure (smiles),measurement,value
"COC1C=C2CN(C(=O)CCC(=O)O)CC2=CC1OCCCOC1C=C2CN(C(=O)CCC(=O)O)CC2=CC1OC (stereo unspecified) [US20250108123, Example I-1]",IC50,< 0.1 nM
